Assay results reported in patent US20240279207A1, “SUBSTITUTED ACYL SULFONAMIDES FOR TREATING CANCER” (The Broad Institute, Inc., priority 2020, published 2024).
Like-named read-outs stand apart in the source and are kept apart here.

Columns and labels:
[1] = tested on: ESR1 transcription in MVLN cells; assay: MVLN reporter assay: repression of ESR1 transcription (luciferase signal); assay type: cell-based; conditions: luciferase signal after 24 h, read-out: MVLN reporter assay, IC50 [M] (arithmetic mean)
How it was run: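 To control for cell loss, Alamar Blue (2 h, 530/590 nm) precedes the 24 h luciferase measurement. The reporter is an ERE from the Xenopus vitellogenin A2 gene driving luciferase, stably transfected into ER-expressing MVLN cells; duplicate samples.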

MDA-MB-436 cells = assay: MDA-MB-436 proliferation assay (negative control cell line); assay type: cell-based; conditions: 144 h, Alamar Blue, read-out: MDA-MB-436 proliferation assay, EC50 [M] (arithmetic mean)
Text: (§1) For compound characterization cell survival assays were routinely run in two cell lines. ZR-75-1 is a breast carcinoma cell line containing a focal KAT6A amplification and high KAT6A protein expression. Proliferation of this cell line is inhibited upon treatment with KAT6A inhibitors. As a negative control cell line MDA-MB-436 were used. These cells carry a […] deletion of the KAT6A gene, have a low KAT6A protein expression and are not growth inhibited upon treatment with KAT6A inhibitors.
(§2) For measurements cell lines were plated at the below indicated concentration per […] in 96-well plates in a humidified incubator at 37° C. and 5% CO2.
MDA-MB-436 (CLS, 300278; breast adenocarcinoma); 3000 cells per well; culture medium: DMEM/Ham's F12 (Biochrom #FG 4815) medium containing 2.5% FBS (Biochrom #S0615).
(§3) Each sample was prepared as triplicate and rim wells were excluded. Plates were incubated at 37° C. and 5% CO2 for 144 h. Cell viability was measured by adding 10 μL of Alamar Blue Reagent (Invitrogen #DAL 1100) and plates were incubated for 2 h at 37° C. and 5% CO2. Fluorescence was measured at 590 nm wavelength with a Tecan Spark or Victor X3 MTP-Reader (PerkinElmer).

LCLC97TM1 = LCLC97TM1 proliferation assay; assay type: cell-based; conditions: Homo sapiens, LCLC-97TM1, LCLC97TM1; read-out: LCLC97TM1 proliferation assay; EC50 [M] (arithmetic mean)
ZR-75-1 cells = assay: ZR-75-1 proliferation assay; assay type: cell-based; conditions: Homo sapiens, ZR-75-1, 144 h, Alamar Blue, read-out: ZR75-1 proliferation assay, EC50 [M] (arithmetic mean)
Text: as §1, §2
ZR-75-1 (ATCC, CRL-1500; breast carcinoma); 3000 cells per well; culture medium: RPMI 1640 (Biochrom #FG 1215) medium containing 2.5% FBS (Biochrom #S0615).
as §3

[2] = target: T1, Recombinant human His-tagged Kat6a protein (amino acids 194-810) (Homo sapiens, UniProt Q92794); assay: Kat6a activity assay (TR-FRET, acetylation of Histone-H4-derived peptide); assay type: biochemical; conditions: 60 mins at 22° C., 220 nM H4 peptide, 600 nM Acetyl Coenzyme A, read-out: KAT6A - DPF/HAT domain IC50 [mol/l] (arithmetic mean)
T1 construct: Kat6a protein (amino acids 194-810); His
T1 sequence (Q92794 194-810): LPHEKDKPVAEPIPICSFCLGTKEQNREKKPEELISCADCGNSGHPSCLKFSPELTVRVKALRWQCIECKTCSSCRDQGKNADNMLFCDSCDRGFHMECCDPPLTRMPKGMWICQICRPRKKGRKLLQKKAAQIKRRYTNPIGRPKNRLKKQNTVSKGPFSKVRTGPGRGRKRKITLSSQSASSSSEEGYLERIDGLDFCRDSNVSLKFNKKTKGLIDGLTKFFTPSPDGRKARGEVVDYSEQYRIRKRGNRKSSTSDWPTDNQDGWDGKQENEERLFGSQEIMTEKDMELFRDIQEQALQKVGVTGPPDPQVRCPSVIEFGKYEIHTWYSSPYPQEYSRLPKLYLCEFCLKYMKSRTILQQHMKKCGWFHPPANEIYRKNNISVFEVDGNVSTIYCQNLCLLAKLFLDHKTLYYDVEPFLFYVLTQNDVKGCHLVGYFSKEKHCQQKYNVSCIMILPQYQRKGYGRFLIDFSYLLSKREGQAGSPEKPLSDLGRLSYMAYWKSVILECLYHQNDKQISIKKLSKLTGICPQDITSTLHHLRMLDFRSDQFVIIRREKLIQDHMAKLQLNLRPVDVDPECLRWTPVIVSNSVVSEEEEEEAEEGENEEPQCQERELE

Compound: COc1cc(C)ccc1S(=O)(=O)NC(=O)c1cc2c(F)cc(N3CCC3)cc2o1 [Example 156, 6-(Azetidin-1-yl)-4-fluoro-N-(2-methoxy-4-methylbenzene-1-sulfonyl)-1-benzofuran-2-carboxamide]
- IC50 ([1]; Homo sapiens, MVLN, 24 h): 7.43e-08 M
- EC50 (MDA-MB-436 cells; Homo sapiens): > 2e-05 M
- EC50 (LCLC97TM1): 6.6e-07 M
- EC50 (ZR-75-1 cells): 1.34e-07 M
- IC50 [2]: 19.9 nM

Compound: CCOc1ccccc1S(=O)(=O)NC(=O)c1cc2ccc(N3CC4(COC4)C3)cc2o1 [Example 125, N-(2-ethoxybenzene-1-sulfonyl)-6-(2-oxa-6-azaspiro[3.3]heptan-6-yl)-1-benzofuran-2-carboxamide]
- IC50 ([1]; Homo sapiens, MVLN, 24 h): > 2e-05 M
- EC50 (MDA-MB-436 cells; Homo sapiens): > 2e-05 M
- EC50 (LCLC97TM1): > 2e-05 M
- EC50 (ZR-75-1 cells): > 2e-05 M
- IC50 [2]: > 20000 nM

Compound: CCCOc1ccccc1S(=O)(=O)NC(=O)c1cc2c(F)cc(N3CCC3)cc2o1 [Example 133, 6-(Azetidin-1-yl)-4-fluoro-N-(2-propoxybenzene-1-sulfonyl)-1-benzofuran-2-carboxamide]
- IC50 ([1]; Homo sapiens, MVLN, 24 h): 6.41e-08 M
- EC50 (MDA-MB-436 cells; Homo sapiens): > 2e-05 M
- EC50 (LCLC97TM1): 6.64e-07 M
- EC50 (ZR-75-1 cells): 1.61e-07 M
- IC50 [2]: 21.8 nM

Compound: CCCOc1cccc(OCC)c1S(=O)(=O)NC(=O)c1cc2c(F)cc(N3CCC3)cc2o1 [Example 10, 6-(Azetidin-1-yl)-N-(2-ethoxy-6-propoxybenzene-1-sulfonyl)-4-fluoro-1-benzofuran-2-carboxamide]
- IC50 ([1]; Homo sapiens, MVLN, 24 h): 1.36e-07 M
- EC50 (MDA-MB-436 cells; Homo sapiens): > 2e-05 M
- EC50 (LCLC97TM1): 6.61e-07 M
- EC50 (ZR-75-1 cells): 2.21e-07 M
- IC50 [2]: 7.12 nM

Compound: O=C(NS(=O)(=O)c1ccccc1-c1ccccc1)c1cc2ccc(N3CC(F)(F)C3)cc2o1 [Example 119, N-([1,1′-biphenyl]-2-sulfonyl)-6-(3,3-difluoroazetidin-1-yl)-1-benzofuran-2-carboxamide]
- IC50 ([1]; Homo sapiens, MVLN, 24 h): 3.04e-06 M
- EC50 (MDA-MB-436 cells; Homo sapiens): > 2e-05 M
- EC50 (LCLC97TM1): 1.46e-05 M
- EC50 (ZR-75-1 cells): 3.7e-06 M
- IC50 [2]: 1100 nM

Compound: CCOc1cccc(OCc2ccccc2)c1S(=O)(=O)NC(=O)c1cc2c(F)cc(N3CCC3)cc2o1 [Example 7, 6-(Azetidin-1-yl)-N-[2-(benzyloxy)-6-ethoxybenzene-1-sulfonyl]-4-fluoro-1-benzofuran-2-carboxamide]
- IC50 ([1]; Homo sapiens, MVLN, 24 h): 1.23e-07 M
- EC50 (MDA-MB-436 cells; Homo sapiens): > 2e-05 M
- EC50 (LCLC97TM1): 2.92e-07 M
- EC50 (ZR-75-1 cells): 3.7e-07 M
- IC50 [2]: 4.15 nM

Compound: Cc1ccc(OC(C)C)c(S(=O)(=O)NC(=O)c2cc3c(F)cc(N4CCC4)cc3o2)c1 [Example 134, 6-(Azetidin-1-yl)-4-fluoro-N-{5-methyl-2-[(propan-2-yl)oxy]benzene-1-sulfonyl}-1-benzofuran-2-carboxamide]
- IC50 ([1]; Homo sapiens, MVLN, 24 h): 7.44e-08 M
- EC50 (MDA-MB-436 cells; Homo sapiens): > 2e-05 M
- EC50 (LCLC97TM1): 3.76e-07 M
- EC50 (ZR-75-1 cells): 8.18e-08 M
- IC50 [2]: 18.3 nM

Compound: O=C(NS(=O)(=O)c1ccccc1-c1ccccc1)c1cc2c(F)cc(N3CCC3)cc2o1 [Example 20, Sodium {[6-(azetidin-1-yl)-4-fluoro-1-benzofuran-2-yl]carbonyl}([biphenyl]-2-ylsulfonyl)azanide]
- IC50 [1]: 3.03e-07 M
- EC50 (MDA-MB-436 cells): > 2e-05 M
- EC50 (LCLC97TM1): 1.42e-06 M
- EC50 (ZR-75-1 cells): 2.87e-07 M
- IC50 [2]: 34.2 nM

Compound: CCOc1ccc(CC)cc1S(=O)(=O)NC(=O)c1cc2c(F)cc(N3CC(F)C3)cc2o1 [Example 153, N-(2-ethoxy-5-ethylbenzene-1-sulfonyl)-4-fluoro-6-(3-fluoroazetidin-1-yl)-1-benzofuran-2-carboxamide]
- IC50 ([1]; Homo sapiens, MVLN, 24 h): 4.69e-08 M
- EC50 (MDA-MB-436 cells; Homo sapiens): > 2e-05 M
- EC50 (LCLC97TM1): 1.6e-07 M
- EC50 (ZR-75-1 cells): 4.98e-08 M
- IC50 [2]: 10.5 nM

Compound: Cc1ccc2cccc(S(=O)(=O)NC(=O)c3cc4c(F)cc(N5CCC5C(F)F)cc4o3)c2n1 (racemic) [Example 160, 6-[2-(Difluoromethyl)azetidin-1-yl]-4-fluoro-N-(2-methylquinoline-8-sulfonyl)-1-benzofuran-2-carboxamide (rac)]
- IC50 ([1]; Homo sapiens, MVLN, 24 h): 1.45e-06 M
- EC50 (MDA-MB-436 cells; Homo sapiens): > 2e-05 M
- EC50 (LCLC97TM1): > 2e-05 M
- EC50 (ZR-75-1 cells): 4.34e-06 M
- IC50 [2]: 203 nM
